The values that follow come from US20230293519A1, “INTEGRIN INHIBITORS AND USES THEREOF IN COMBINATION WITH OTHER AGENTS” (Pliant Therapeutics, Inc., priority 2021, published 2023).

recombinant human integrin αvβ6, sequence (P06756 31-889): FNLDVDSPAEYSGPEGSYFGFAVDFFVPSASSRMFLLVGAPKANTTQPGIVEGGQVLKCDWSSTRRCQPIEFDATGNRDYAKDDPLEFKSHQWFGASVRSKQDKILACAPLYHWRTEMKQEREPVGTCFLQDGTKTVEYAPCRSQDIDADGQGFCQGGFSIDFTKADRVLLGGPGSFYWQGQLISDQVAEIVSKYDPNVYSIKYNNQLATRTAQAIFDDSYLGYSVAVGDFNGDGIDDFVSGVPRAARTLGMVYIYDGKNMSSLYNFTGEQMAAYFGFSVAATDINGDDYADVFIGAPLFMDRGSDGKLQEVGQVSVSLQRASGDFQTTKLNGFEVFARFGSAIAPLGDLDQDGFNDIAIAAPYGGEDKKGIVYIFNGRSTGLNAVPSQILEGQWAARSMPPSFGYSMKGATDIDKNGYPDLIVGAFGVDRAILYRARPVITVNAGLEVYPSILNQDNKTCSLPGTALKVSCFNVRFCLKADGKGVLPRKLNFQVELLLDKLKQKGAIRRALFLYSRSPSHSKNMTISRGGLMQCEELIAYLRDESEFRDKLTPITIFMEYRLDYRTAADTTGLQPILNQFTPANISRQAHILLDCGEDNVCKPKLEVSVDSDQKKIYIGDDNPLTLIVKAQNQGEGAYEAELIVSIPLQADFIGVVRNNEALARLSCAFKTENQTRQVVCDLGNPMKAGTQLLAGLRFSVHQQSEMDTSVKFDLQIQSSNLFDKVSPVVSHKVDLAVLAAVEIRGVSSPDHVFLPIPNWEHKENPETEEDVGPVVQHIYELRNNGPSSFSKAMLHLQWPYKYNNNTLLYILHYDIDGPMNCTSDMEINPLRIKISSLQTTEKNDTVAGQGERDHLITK
recombinant human integrin αvβ6, sequence (P06756 890-992 partner): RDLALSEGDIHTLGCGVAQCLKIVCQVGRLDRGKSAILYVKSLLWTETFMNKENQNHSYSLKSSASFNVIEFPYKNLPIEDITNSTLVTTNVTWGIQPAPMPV
recombinant human integrin αvβ6, sequence (P18564 22-707): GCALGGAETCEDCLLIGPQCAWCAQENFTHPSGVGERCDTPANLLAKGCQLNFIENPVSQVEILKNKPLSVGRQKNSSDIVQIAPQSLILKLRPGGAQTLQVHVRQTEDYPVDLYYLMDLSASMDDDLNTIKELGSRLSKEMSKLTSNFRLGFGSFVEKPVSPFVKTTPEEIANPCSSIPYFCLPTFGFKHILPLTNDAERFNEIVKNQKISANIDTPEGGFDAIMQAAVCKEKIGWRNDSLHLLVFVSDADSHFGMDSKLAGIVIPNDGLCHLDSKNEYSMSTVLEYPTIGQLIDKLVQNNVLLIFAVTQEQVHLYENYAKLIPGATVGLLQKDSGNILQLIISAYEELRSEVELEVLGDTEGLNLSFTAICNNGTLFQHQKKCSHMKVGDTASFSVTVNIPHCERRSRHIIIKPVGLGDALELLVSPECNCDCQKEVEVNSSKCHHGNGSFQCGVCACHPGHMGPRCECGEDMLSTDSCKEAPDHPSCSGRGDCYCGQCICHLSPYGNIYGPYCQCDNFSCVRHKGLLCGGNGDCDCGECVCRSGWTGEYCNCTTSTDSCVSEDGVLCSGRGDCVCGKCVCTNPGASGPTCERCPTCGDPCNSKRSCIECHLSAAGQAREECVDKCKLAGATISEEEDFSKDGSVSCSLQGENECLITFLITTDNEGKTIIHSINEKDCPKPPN

The target in this experiment is recombinant human integrin αvβ6 (Homo sapiens (Human), UniProt P06756+P18564). The experiment is described as follows: Solid phase integrin αvβ6 binding assay. To be noted: IC50 presented in four ranges; read-out: αvβ6 Inhibition IC50 (nM) - range. How it is done:
(§1) Microplates were coated with recombinant human integrin αvβ6 (2 µg/mL) in PBS (100 µL/well 25° C., overnight). The coating solution was removed, washed with wash buffer (0.05% Tween 20; 0.5 mM MnCl2; in 1x TBS). The plate was blocked with 200 µL/well of Block Buffer (1% BSA; 5% sucrose; 0.5 mM MnCl2; in 1x TBS) at 37° C. for 2 h. Dilutions of testing compounds and recombinant TGFβ1 LAP (0.67 µg/mL) in binding buffer (0.05% BSA; 2.5% sucrose; 0.5 mM MnCl2; in 1x TBS) were added. The plate was incubated for 2 hours at 25° C., washed, and incubated for 1 hour with Biotin-Anti-hLAP. Bound antibody was detected by peroxidase-conjugated streptavidin. The IC50 values for testing compounds were calculated by a four-parameter logistic regression.
The compounds tested were compound samples prepared according to procedures described in the Synthetic Examples section, with the stereochemical purity as indicated in the Examples.
as §1, with “A third series of exemplary compounds was selected for testing in the solid phase integrin αvβ6 binding assay. The compounds tested were compound samples prepared according to procedures described in the Synthetic Examples section, with the stereochemical purity as indicated in the Examples. As in Example B1, microplates” for “Microplates”
One may read the IC50 as the point on the concentration scale where inhibition reaches its midpoint. On to `CO[C@H](C)CN(CCCCc1ccc2c(n1)NCCC2)CC[C@H](Nc1ncc(C#N)cn1)C(=O)O` [compound 84], for which the half-inhibitory concentration (IC50) lay in the range of 250 to 1000 nM.

For `COCCN(CCCCc1ccc2c(n1)NCCC2)CC[C@H](Nc1cc(C)nc(C(F)(F)F)n1)C(=O)O` [compound 26], the IC50 was below 50 nM. Under `O=C(O)[C@H](CCN(CCCCc1ccc2c(n1)NCCC2)CCOc1cncc(F)c1)Nc1ncnc2cccnc12` [compound 60] stands below 50 nM; under `COCCN(CCCCc1ccc2c(n1)NCCC2)CC[C@H](Nc1ncnc2c(F)cccc12)C(=O)O` [compound 20], below 50 nM. Under `O=C(O)[C@H](CCN(CCCCc1ccc2c(n1)NCCC2)CCOc1ccccn1)Nc1ncnc2ccccc12` [compound 49] stands below 50 nM; under `COCCN(CCCCc1ccc2c(n1)NCCC2)CCC(Nc1ncnc2ncccc12)C(=O)O` (centres unmarked) [compound 11], below 50 nM. With `O=C(O)[C@H](CCN(CCCCc1ccc2c(n1)NCCC2)CC(F)F)Nc1ncnc2ccccc12` [compound 8] the figure was 50 to 250 nM. For `CO[C@H](C)CN(CCCCc1ccc2c(n1)NCCC2)CC[C@H](Nc1ncc(C(F)(F)F)cn1)C(=O)O` [compound 85], the IC50 was in the range of 250 to 1000 nM. Under `N#Cc1cnc(N[C@@H](CCN(CCCCc2ccc3c(n2)NCCC3)CC(F)F)C(=O)O)nc1` [compound 118] stands above 1000 nM; under `CS(=O)(=O)CCN(CCCCc1ccc2c(n1)NCCC2)CC[C@H](Nc1ccnc(C(F)(F)F)n1)C(=O)O` [compound 104], above 1000 nM.

`CO[C@H](C)CN(CCCCc1ccc2c(n1)NCCC2)CC[C@H](Nc1ncc(F)cn1)C(=O)O` [compound 78]: the IC50 is below 50 nM. With `COCCN(CCCCc1ccc2c(n1)NCCC2)CC[C@H](Nc1cc(C(F)F)ncn1)C(=O)O` [compound 23] the figure was below 50 nM. With `COCCN(CCCCc1ccc2c(n1)NCCC2)CC[C@H](Nc1ncnc2ccc(F)cc12)C(=O)O` [compound 19] the figure was below 50 nM; with `O=C(O)[C@H](CCN(CCCCc1ccc2c(n1)NCCC2)CCOc1ccccc1)Nc1ncnc2ccccc12` [compound 28], below 50 nM; with `O=C(O)[C@H](CCN(CCCCc1ccc2c(n1)NCCC2)CC1(F)COC1)Nc1ncnc2ccccc12` [compound 147], 50 to 250 nM.

In the case of `CS(=O)(=O)CCN(CCCCc1ccc2c(n1)NCCC2)CC[C@H](Nc1nc(-c2cccnc2)nc2ccccc12)C(=O)O` [compound 107], the IC50 fell in the range of 250 to 1000 nM. With `O=C(O)[C@H](CCN(CCCCc1ccc2c(n1)NCCC2)CC(F)F)Nc1ncnc2[nH]ncc12` [compound 112] the figure was 250 to 1000 nM.

`O=C(O)[C@H](CCN(CCCCc1ccc2c(n1)NCCC2)CCOc1ccccc1)Nc1ncnc2[nH]ncc12` [compound 90]: the IC50 is below 50 nM. Turning to `COc1ccc2c(N[C@@H](CCN(CCCF)CCCCc3ccc4c(n3)NCCC4)C(=O)O)ncnc2c1` [compound 41], the IC50 is below 50 nM. Under `CO[C@H](C)CN(CCCCc1ccc2c(n1)NCCC2)CC[C@H](Nc1ncc(C2CC2)cn1)C(=O)O` [compound 124] stands below 50 nM; under `CN(C)C(=O)CN(CCCCc1ccc2c(n1)NCCC2)CC[C@H](Nc1ncnc2c1cnn2C)C(=O)O` [compound 140], below 50 nM. Regarding `N#Cc1cnc(N[C@@H](CCN(CCCCc2ccc3c(n2)NCCC3)CCOc2ccccc2)C(=O)O)nc1` [compound 111], the IC50 is below 50 nM. Under `Cc1ccc(OCCN(CCCCc2ccc3c(n2)NCCC3)CC[C@H](Nc2ncnc3ccccc23)C(=O)O)cn1` [compound 59] stands below 50 nM.

On to `COc1cccc2c(N[C@@H](CCN(CCCF)CCCCc3ccc4c(n3)NCCC4)C(=O)O)ncnc12` [compound 43], for which the 50% inhibitory concentration (IC50) was below 50 nM. Under `O=C(O)[C@H](CCN(CCCCc1ccc2c(n1)NCCC2)C1CC1)Nc1ccnc(C(F)(F)F)n1` [compound 115] stands 50 to 250 nM; under `O=C(O)[C@H](CCN(CCCCc1ccc2c(n1)NCCC2)CCOc1ccccc1)Nc1cc(-n2cccn2)ncn1` [compound 91], below 50 nM. With `Cn1ncc2c(N[C@@H](CCN(CCCCc3ccc4c(n3)NCCC4)CC(F)F)C(=O)O)ncnc21` [compound 88] the figure was above 1000 nM. Under `Cn1ncc2c(N[C@@H](CCN(CCCCc3ccc4c(n3)NCCC4)CCC(F)F)C(=O)O)ncnc21` [compound 133] stands 50 to 250 nM; under `CS(=O)(=O)CCN(CCCCc1ccc2c(n1)NCCC2)CC[C@H](Nc1ncc(Br)cn1)C(=O)O` [compound 103], above 1000 nM; under `CS(=O)(=O)CCN(CCCCc1ccc2c(n1)NCCC2)CC[C@H](Nc1ncnc2ccccc12)C(=O)O` [compound 27], below 50 nM. For `O=C(O)[C@H](CCN(CCCCc1ccc2c(n1)NCCC2)CC(F)F)Nc1ncc(Br)cn1` [compound 96], the IC50 was above 1000 nM. Consider `CO[C@H](C)CN(CCCCc1ccc2c(n1)NCCC2)CC[C@H](Nc1ncnc2c1cnn2C)C(=O)O` [compound 74], for which the IC50 is below 50 nM.

Take `O=C(O)[C@H](CCN(CCCCc1ccc2c(n1)NCCC2)CCOc1ccc(F)cc1)Nc1ncc(Br)cn1` [compound 144]: the IC50 was 50 to 250 nM.

On to `O=C(O)[C@H](CCN(CCCCc1ccc2c(n1)NCCC2)CCC(F)F)Nc1ncnc2ccccc12` [compound 29], for which the 50% inhibitory concentration (IC50) was below 50 nM. Under `COC[C@@H](F)CN(CCCCc1ccc2c(n1)NCCC2)CC[C@H](Nc1cc(-n2cccn2)ncn1)C(=O)O` [compound 108] stands above 1000 nM. As to `O=C(O)[C@H](CCN(CCCF)CCCCc1ccc2c(n1)NCCC2)Nc1ncnc2ccccc12` [compound 30], the IC50 was below 50 nM. With `O=C(O)[C@H](CCN(CCCCc1ccc2c(n1)NCCC2)CCC(F)F)Nc1ccnc(C2CC2)n1` [compound 135] the figure was 50 to 250 nM; with `Cc1nc(N[C@@H](CCN(CCCCc2ccc3c(n2)NCCC3)CC2CC(F)(F)C2)C(=O)O)c2ccc(F)cc2n1` [compound 33], below 50 nM; with `Cc1ccc(OCCN(CCCCc2ccc3c(n2)NCCC3)CC[C@H](Nc2ncnc3cccnc23)C(=O)O)cn1` [compound 57], below 50 nM. For `CCOCCN(CCCCc1ccc2c(n1)NCCC2)CC[C@H](Nc1ncnc2ccccc12)C(=O)O` [compound 55], the IC50 was below 50 nM. With `COCCN(CCCCc1ccc2c(n1)NCCC2)CC[C@H](Nc1cc(-n2cccn2)ncn1)C(=O)O` [compound 44] the figure was below 50 nM; with `O=C(O)[C@H](CCN(CCCCc1ccc2c(n1)NCCC2)CCC(F)F)Nc1ncc(C(F)(F)F)cn1` [compound 132], 50 to 250 nM; with `COCCN(CCCCc1ccc2c(n1)NCCC2)CC[C@H](Nc1ncnc2c(Cl)cccc12)C(=O)O` [compound 38], below 50 nM. With `O=C(O)[C@H](CCN(CCCCc1ccc2c(n1)NCCC2)CCOc1ccccn1)Nc1ncnc2c(Cl)cccc12` [compound 48] the figure was below 50 nM; with `O=C(O)[C@H](CCN(CCCCc1ccc2c(n1)NCCC2)CCOc1ccccc1)Nc1ncc(C(F)(F)F)cn1` [compound 89], below 50 nM; with `O=C(O)[C@H](CCN(CCCCc1ccc2c(n1)NCCC2)CC(CO)CO)Nc1ncnc2ccccc12` [compound 130], below 50 nM. With `Cc1cc(C)n(CCN(CCCCc2ccc3c(n2)NCCC3)CC[C@H](Nc2ncnc3ccccc23)C(=O)O)n1` [compound 45] the figure was below 50 nM; with `CO[C@H](C)CN(CCCCc1ccc2c(n1)NCCC2)CC[C@H](Nc1nc(C)nc2ccccc12)C(=O)O` [compound 66], below 50 nM. For `O=C(O)[C@H](CCN(CCCCc1ccc2c(n1)NCCC2)CCOc1ccccc1)Nc1cc(-c2ccccc2)ncn1` [compound 93], the IC50 is below 50 nM.

Consider `CO[C@H](C)CN(CCCCc1ccc2c(n1)NCCC2)CC[C@H](Nc1nccnc1C#N)C(=O)O` [compound 76], for which the IC50 is below 50 nM.

As for `O=C(O)[C@H](CCN(CCCCc1ccc2c(n1)NCCC2)CCOc1cncc(F)c1)Nc1ncnc2ccccc12` [compound 58], the IC50 is below 50 nM. Regarding `O=C(O)[C@H](CCN(CCCCc1ccc2c(n1)NCCC2)CC(F)F)Nc1cc(-n2cccn2)ncn1` [compound 98], the IC50 is above 1000 nM. Consider `Cc1nc(N[C@@H](CCN(CCCCc2ccc3c(n2)NCCC3)CCOC2CC2(F)F)C(=O)O)c2ccc(F)cc2n1` (some centres unmarked) [compound 42], for which the IC50 is below 50 nM.

For the compound `CC(=O)NCCN(CCCCc1ccc2c(n1)NCCC2)CC[C@H](Nc1ncnc2ccccc12)C(=O)O` [compound 63], the IC50 is below 50 nM.

On to `O=C(O)[C@H](CCN(CCCCc1ccc2c(n1)NCCC2)C1CC1)Nc1ncnc2ccccc12` [compound 6], for which the half-inhibitory concentration (IC50) is 50 to 250 nM. Under `Cn1ncc2c(N[C@@H](CCN(CCCCc3ccc4c(n3)NCCC4)CCOc3ccccc3)C(=O)O)ncnc21` [compound 82] stands below 50 nM.
